In patent EP0330017A2, “Use of thiazoles for increasing animal performance” (BOEHRINGER INGELHEIM VETMEDICA GMBH, priority 1988, dated 1989):

Assays:
[1] = Performance promotion in lambs, 33-day feeding trial (weight gain, feed consumption); type: in vivo, Lämmern; conditions: 33-day trial
Text: (§1) Die leistungsfördernde Wirkung der vorstehend erwähnten Thiazole wurde beispielsweise an der Verbindung N-[2-(4-Carboxymethoxyphenyl)-1-methylethenyl]-2-(2-trifluormethyl-thiazol-4-yl)morpholin wie folgt geprüft:
1.) 2 Gruppen von 7 Lämmern, wobei jedes Tier einzeln gehalten wurde, erhielten identisches Futter und Wasser ad libitum. Die eine Gruppe erhielt zusätzlich 8 ppm der vorstehend erwähnten Verbindung. Während der 33-tägigen Versuchsperiode wurden Gewichtszunahme und Futterverbrauch gegenüber der Kontrollgruppe bestimmt.

[2] = Performance promotion in lambs, 42-day feeding trial (weight gain, carcass quality); type: in vivo, Lämmern; conditions: 42-day trial
Text: as §1
2.) 2 Gruppen von 12 Lämmern erhielten identisches Futter und Wasser ad libitum. Die eine Gruppe erhielt zusätzlich 8 ppm der vorstehend erwähnten Verbindung. Während der 42-tä-gigen Versuchsperiode wurden Gewichtszunahme und Parameter der Schlachtkörperqualität gegenüber der Kontrolle bestimmt.

[3] = Performance promotion in pigs, 33-day feeding trial (weight gain, feed consumption, carcass quality); type: in vivo, Schweinen; conditions: 8 ppm test compound in feed, 33-day trial, 10 pigs
Text: as §1
3.) 2 Gruppen von 10 Schweinen, wobei jedes Tier einzeln gefüttert wurde, erhielten identisches Futter und Wasser ad libitum. Die eine Gruppe erhielt zusätzlich 8 ppm der vorstehend erwähnten Verbindung. Während der 33-tägigen Versuchsperiode wurden Gewichtszunahme, Futterverbrauch der Schlachtkörperqualität gegenüber der Kontrollgruppe bestimmt.

[4] = 8 ppm test compound in feed, 7 lambs
[5] = 8 ppm test compound in feed, 12 lambs

SMILES: CC(Cc1ccc(OCC(=O)O)cc1)N1CCOC(c2csc(C(F)(F)F)n2)C1 (centres unmarked) [Testverbindung]
- Endgewicht [1, 4]: 43,9 kg
- Futteraufnahme [1, 4]: 1598,0 g/Tag
- Futterverwertung (kg Zunahme/kg Futter) [1, 4]: 0,161 kg Zunahme/kg Futter
- Gewichtszunahme [1, 4]: 258,0 g/Tag
- Futteraufnahme, Abweichung zur Kontrolle ([1]; 8 ppm vs 0 ppm control, lambs): +4,4%
- Futterverwertung (kg Zunahme/kg Futter), Abweichung zur Kontrolle ([1]; 8 ppm vs 0 ppm control, lambs): +50,5%
- Gewichtszunahme, Abweichung zur Kontrolle ([1]; 8 ppm vs 0 ppm control, lambs): +57,3%
- Endgewicht [2, 5]: 46,6 kg
- Gewicht des musculus longissimus dorsi [2, 5]: 324,0 g
- Gewichtszunahme [2, 5]: 320,0 g/Tag
- Rückenfettdicke [2, 5]: 1,78 mm
- Schlachtkörperzusammensetzung: Fett [2, 5]: 16,1%
- Schlachtkörperzusammensetzung: Fleisch [2, 5]: 69,1%
- Schlachtkörperzusammensetzung: Knochen [2, 5]: 14,8%
- Gewicht des musculus longissimus dorsi, Abweichung zur Kontrolle ([2]; 8 ppm vs 0 ppm control, lambs): +6,9%
- Schlachtkörperzusammensetzung: Fett, Abweichung zur Kontrolle ([2]; 8 ppm vs 0 ppm control, lambs): -6,9%
- Schlachtkörperzusammensetzung: Fleisch, Abweichung zur Kontrolle ([2]; 8 ppm vs 0 ppm control, lambs): +1,2%
- Schlachtkörperzusammensetzung: Knochen, Abweichung zur Kontrolle ([2]; 8 ppm vs 0 ppm control, lambs): +2,8%
- Ausschlachtung [3]: 77,2%
- Endgewicht [3]: 97,6 kg
- Futterverwertung (kg Futter/kg Zunahme) [3]: 3,17 kg Futter/kg Zunahme
- Gewichte verschiedener Teilstücke: Rippe [3]: 7,25 kg
- Gewichte verschiedener Teilstücke: Schinken [3]: 7,46 kg
- Gewichte verschiedener Teilstücke: Schulter [3]: 9,48 kg
- Gewichtszunahme [3]: 754,0 g/Tag
- Rückenmuskelfläche [3]: 32,3 cm²
